The text below walks through data of paper PMC12592139, “Quantitative assessment of the usability of electromechanical human-based modelling and simulation to replace Langendorff isolated rabbit heart experiments in the preclinical setting” (Frontiers in Pharmacology, 2025).

One data set concerns the target T1, hNCX1 (Homo sapiens, UniProt P32418).
T1 construct: expressed in transfected cells; host or cells: CHO cell lines
As to the kind of experiment: Cell-based calcium mobilization assay on CHO cell lines expressing NCX1. As to conditions: for IC50: Fluo4-AM. As for the experimental part: Furthermore, in vitro potency for 11 compounds was assessed on the NCX isoforms using a cell-based calcium mobilization assay on CHO cell lines expressing NCX1, NCX2 or NCX3. Measurements of intracellular calcium concentration employed a fluorescent imaging plate reader (Molecular Devices, United States) with the calcium-sensitive dye Fluo4-AM. Detailed methods are described in [Pelat et al. (2021)].

For another data set, the system named is isolated rabbit heart. Kind of data set: Ex vivo rabbit whole-heart Langendorff experiments (QT, left ventricular pressure). As to conditions: 0.1µM. As for the experimental part: Routine experimental measurements used in this study were retrieved from already existing datasets collected and curated by Sanofi, contributing to the 3R principles in animal experimentation: replacement, reduction and refinement. All the procedures described in the present study were performed in agreement with the European regulation (2010/63/EU) and under the approval and control of Sanofi’s ethics committee. […]
Hearts were spontaneously beating. […] The left ventricular pressure was evaluated using a pressure transducer within a saline-filled latex balloon inserted into the ventricular chamber. […] The electrocardiogram was recorded with two flexible electrodes gently pressed on the epicardium. The ECG parameters PQ, QRS, and QT durations were calculated using specific software (HEM-Notocord systems).
After stabilization, pressure was recorded with the vehicle for 15 min and used as a control period. […]
Baseline biomarker measurements were established in control conditions for both ex vivo experiments and in silico simulations, benchmarking compound results at each concentration against these respective controls. Percent variations of means for experiments and simulations were calculated. In the population, these variations were measured against each cell’s control, and the group mean is calculated.

In a further data set the test system is L-type calcium current. On the set-up: method as in Trovato et al., 2025. The conditions noted are these: at EC50; ref Trovato et al., 2025; cited from earlier work.
The next data set concerns the target hERG channel (Homo sapiens, UniProt Q12809). Kind of data set: Automated patch-clamp (QPatch) on hERG channel.
A further data set concerns the target late hNav1.5 (Homo sapiens, UniProt Q14524). Kind of data set: Late hNav1.5 inhibition in vitro. The class given is cell-based.
Another data set deals with QTc. The conditions noted are these: clinical, administered in isolation; ref El Kadri et al., 2022; Morrisette et al., 2020; cited from earlier work.
For another data set, the target named is hCav1.2 (Homo sapiens, UniProt Q13936). Kind of data set: Automated patch-clamp (SyncroPatch) on hCav1.2.
The target in the next data set is hNav1.5 (Homo sapiens, UniProt Q14524). As to the kind of experiment: Automated patch-clamp (QPatch) on hNav1.5 (peak sodium current).
Sequence of hNav1.5 (Q14524 whole entry): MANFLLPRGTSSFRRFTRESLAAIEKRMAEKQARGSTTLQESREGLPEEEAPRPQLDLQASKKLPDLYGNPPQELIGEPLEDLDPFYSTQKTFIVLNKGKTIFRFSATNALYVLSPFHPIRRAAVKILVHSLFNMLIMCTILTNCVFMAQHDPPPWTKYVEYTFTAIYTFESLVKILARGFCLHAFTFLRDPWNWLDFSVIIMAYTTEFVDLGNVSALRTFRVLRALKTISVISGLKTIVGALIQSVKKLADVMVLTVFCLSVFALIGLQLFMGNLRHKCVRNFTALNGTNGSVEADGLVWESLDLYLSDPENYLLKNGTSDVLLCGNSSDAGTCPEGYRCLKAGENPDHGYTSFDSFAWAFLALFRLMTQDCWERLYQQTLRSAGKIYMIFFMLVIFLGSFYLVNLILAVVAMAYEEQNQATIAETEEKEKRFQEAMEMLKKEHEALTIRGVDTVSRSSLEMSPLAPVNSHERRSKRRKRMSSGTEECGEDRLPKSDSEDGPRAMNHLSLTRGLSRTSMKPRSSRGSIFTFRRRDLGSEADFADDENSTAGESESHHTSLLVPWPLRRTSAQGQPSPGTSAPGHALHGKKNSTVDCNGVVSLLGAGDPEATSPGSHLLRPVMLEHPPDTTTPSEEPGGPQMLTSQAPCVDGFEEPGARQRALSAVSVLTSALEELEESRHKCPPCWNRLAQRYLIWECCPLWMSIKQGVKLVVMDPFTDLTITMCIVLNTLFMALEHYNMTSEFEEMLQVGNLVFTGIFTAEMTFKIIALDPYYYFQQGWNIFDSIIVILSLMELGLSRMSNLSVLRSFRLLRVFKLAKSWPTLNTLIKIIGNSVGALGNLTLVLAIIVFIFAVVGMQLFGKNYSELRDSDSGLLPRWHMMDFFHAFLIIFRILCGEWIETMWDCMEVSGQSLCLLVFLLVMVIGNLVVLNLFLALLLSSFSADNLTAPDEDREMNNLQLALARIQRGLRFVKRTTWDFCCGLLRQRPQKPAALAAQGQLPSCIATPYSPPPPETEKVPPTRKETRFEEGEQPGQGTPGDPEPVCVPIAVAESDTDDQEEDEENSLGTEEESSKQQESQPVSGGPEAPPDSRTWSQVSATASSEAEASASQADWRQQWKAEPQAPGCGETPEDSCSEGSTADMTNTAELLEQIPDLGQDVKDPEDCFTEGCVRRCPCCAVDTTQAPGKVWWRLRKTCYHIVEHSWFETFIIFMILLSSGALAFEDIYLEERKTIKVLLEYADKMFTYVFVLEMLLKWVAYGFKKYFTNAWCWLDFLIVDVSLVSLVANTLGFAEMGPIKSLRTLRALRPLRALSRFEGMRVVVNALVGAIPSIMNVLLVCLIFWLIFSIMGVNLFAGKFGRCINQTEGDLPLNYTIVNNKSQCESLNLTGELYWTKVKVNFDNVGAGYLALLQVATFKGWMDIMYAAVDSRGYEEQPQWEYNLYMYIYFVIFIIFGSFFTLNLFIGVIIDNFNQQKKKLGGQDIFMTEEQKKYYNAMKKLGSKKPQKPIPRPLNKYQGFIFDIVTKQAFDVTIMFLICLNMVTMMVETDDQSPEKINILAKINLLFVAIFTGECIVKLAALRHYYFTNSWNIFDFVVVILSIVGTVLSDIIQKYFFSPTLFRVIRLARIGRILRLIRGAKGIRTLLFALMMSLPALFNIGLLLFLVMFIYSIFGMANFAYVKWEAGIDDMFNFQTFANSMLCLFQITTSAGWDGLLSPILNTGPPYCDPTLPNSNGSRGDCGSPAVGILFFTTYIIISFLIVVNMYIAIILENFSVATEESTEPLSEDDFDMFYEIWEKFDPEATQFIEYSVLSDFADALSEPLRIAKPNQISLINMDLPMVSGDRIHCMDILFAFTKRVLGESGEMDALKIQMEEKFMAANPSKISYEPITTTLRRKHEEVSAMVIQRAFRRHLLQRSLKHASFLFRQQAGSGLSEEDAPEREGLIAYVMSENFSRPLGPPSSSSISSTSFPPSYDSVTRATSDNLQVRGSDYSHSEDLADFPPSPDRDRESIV
Another data set has as its target T2, hKv4.3 (Homo sapiens, UniProt Q9UK17).
T2 construct: expressed in transfected cells
T2 sequence (Q9UK17 1-655): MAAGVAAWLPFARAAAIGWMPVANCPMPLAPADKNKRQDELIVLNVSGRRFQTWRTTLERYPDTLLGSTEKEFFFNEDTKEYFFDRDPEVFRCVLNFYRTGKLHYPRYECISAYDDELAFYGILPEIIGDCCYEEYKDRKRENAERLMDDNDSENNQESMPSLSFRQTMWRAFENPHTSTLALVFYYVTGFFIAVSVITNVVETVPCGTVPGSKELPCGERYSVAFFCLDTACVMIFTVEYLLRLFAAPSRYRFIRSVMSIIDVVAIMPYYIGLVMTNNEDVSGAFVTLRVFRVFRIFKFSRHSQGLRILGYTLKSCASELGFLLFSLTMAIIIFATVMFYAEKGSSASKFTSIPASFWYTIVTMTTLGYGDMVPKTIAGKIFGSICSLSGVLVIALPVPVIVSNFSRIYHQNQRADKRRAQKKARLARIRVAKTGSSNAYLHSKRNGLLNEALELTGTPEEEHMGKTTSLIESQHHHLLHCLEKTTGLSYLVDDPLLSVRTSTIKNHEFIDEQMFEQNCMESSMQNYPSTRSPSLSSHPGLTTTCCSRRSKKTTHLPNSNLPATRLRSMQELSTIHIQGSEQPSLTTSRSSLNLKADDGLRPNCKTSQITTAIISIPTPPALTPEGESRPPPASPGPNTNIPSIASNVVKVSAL
Kind of data set: Automated patch-clamp (QPatch) on hKv4.3. It counts as cell-based.

[1] abbreviates: CHO cells, calcium mobilization.

Molecules are shown by their SMILES. Read-outs that look alike come from different tables or passages of the source. Where only a bound is given, the exact number is not on record here.

Sequence of hERG channel (Q12809 whole entry): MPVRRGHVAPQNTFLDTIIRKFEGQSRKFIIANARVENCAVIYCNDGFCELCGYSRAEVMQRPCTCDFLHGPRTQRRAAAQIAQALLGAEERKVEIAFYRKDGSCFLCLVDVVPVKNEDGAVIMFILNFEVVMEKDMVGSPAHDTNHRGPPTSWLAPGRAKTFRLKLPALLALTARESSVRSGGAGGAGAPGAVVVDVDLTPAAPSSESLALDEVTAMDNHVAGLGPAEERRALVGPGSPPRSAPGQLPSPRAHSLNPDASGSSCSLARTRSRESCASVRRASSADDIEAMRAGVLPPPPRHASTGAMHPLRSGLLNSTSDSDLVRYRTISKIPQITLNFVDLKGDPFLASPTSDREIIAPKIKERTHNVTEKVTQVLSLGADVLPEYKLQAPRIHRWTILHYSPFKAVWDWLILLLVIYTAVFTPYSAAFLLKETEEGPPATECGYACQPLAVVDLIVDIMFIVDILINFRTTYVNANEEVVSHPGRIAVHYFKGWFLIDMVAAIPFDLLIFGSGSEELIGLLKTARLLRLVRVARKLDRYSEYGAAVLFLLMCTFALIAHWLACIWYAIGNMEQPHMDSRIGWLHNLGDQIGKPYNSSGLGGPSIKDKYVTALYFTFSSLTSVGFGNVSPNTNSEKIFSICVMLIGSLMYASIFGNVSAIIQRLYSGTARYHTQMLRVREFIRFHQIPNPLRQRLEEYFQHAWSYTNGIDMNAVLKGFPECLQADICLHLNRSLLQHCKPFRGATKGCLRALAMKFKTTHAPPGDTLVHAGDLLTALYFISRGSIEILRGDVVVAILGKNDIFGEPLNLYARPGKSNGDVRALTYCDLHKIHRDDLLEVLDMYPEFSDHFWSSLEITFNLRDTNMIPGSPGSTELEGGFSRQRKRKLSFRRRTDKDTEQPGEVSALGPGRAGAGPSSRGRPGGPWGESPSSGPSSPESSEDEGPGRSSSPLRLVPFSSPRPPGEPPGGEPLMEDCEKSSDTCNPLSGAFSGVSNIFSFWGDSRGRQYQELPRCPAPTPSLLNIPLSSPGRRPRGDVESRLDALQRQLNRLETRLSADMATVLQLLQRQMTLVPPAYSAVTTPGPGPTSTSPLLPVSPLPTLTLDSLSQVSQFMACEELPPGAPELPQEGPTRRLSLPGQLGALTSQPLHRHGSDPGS
Protocol for hCav1.2: (§1) The QPatch system (Sophion, Denmark) was used to investigate hERG, hNav1.5 and hKv4.3, and the SyncroPatch system (Nanion, Germany) was employed for hCav1.2. Recordings for all 37 compounds were performed at 21 °C.
(§2) When a Hill coefficient was not available, it was approximated as 1.
Protocol for hERG channel: as §1, §2
Description for hKv4.3: Following the procedure in [Trovato et al. (2022)], we used automated patch-clamp platforms to study four ionic currents relevant to human repolarisation, as outlined by [Zhou et al. (2020)] as the minimum set of ion channels, marked by the CiPA Ion Channel Work Group, for reliable predictions of repolarisation abnormalities. […] The QPatch system (Sophion, Denmark) was used to investigate hERG, hNav1.5 and hKv4.3, and the SyncroPatch system (Nanion, Germany) was employed for hCav1.2. Recordings for all 37 compounds were performed at 21 °C.
as §2

In the case of `CC(CCc1ccc(O)cc1)NCCc1ccc(O)c(O)c1` (centres unmarked) [Dobutamine], on hNCX1, the NCX inhibition result is listed as “does not inhibit” and the “hNCX1 % block @ 30 µM” value was determined as 15.00%. Also, the “increase in ventricular pressure” value in the data set with isolated rabbit heart was 17%. For the same molecule, the “increase of L-type calcium current (factor)” value with L-type calcium current is given as 1.22. At hERG channel, this molecule showed an IC50 of 22.1 µM.
As to `CCN(CCO)CCCC(C)Nc1ccnc2cc(Cl)ccc12` (centres unmarked) [SA1068, Hydroxychloroquine], the “hNCX1 % block @ 30 µM” value on hNCX1 is reported as 14%. The IC50 on hNCX1 (setting [1]) was more than 30 µM; on late hNav1.5 (read-out: Late Nav1.5 IC50), more than 30 µM; against hERG channel it was 7 µM; at hCav1.2, 7.6 µM; against hNav1.5, 90 µM. In addition, the “Late Nav1.5 % block @ 30 µM” value at late hNav1.5 (30 µM) amounted to 15%. The “average increase in QTc” value with QTc was 11 ms.
`[H]/N=C(\N/C(=N/[H])Nc1ccc(Cl)cc1)NC(C)C` [SA1790, Paludrine]: the IC50 against hERG channel was more than 30 µM.
As to `CN(C)C(=O)C(CCN1CCC(O)(c2ccc(Cl)cc2)CC1)(c1ccccc1)c1ccccc1` [SA2089, Loperamide], the IC50 at hCav1.2 stood at 3.9 µM; against hNav1.5, 2.1 µM.
As for `COC(=O)N1CCN(Cc2cccc(NC(=O)Nc3ccc(C)nc3)c2F)CC1` [SA3064, Omecamtiv], at hERG channel (read-out: hERG IC50, automated patch-clamp, 21 °C, IC50 not achieved taken at maximum concentration or estimated with Hill coefficient 1), the 50% inhibitory concentration (IC50) was 126 µM.
With `C=C(C)[C@@H]1CCC(C)=C[C@H]1c1c(O)cc(CCCCC)cc1O` [SA5067, Cannabidiol], the half-maximal inhibitory concentration (IC50) at hKv4.3 amounted to 7.75 µM; at hNCX1 (setting [1]), 18.9 µM; at hERG channel, 21.8 µM; on hCav1.2 it was 11.8 µM; against hNav1.5, 28.1 µM. Further, on hNCX1 (setting [1]), the “hNCX1 nh (Hill coefficient)” value is given as “nH 1.7”.
With `CN1CCN(C2=Nc3cc(Cl)ccc3Nc3ccccc32)CC1` [SA5332, Clozapine], the IC50 on hKv4.3 (automated patch-clamp, 21 °C, IC50 not achieved taken at maximum concentration or estimated with Hill coefficient 1, read-out: Kv4.3 IC50) is 61.7 µM; against hNav1.5, 23.2 µM.
Turning to `CCN(CC)CC(=O)Nc1c(C)cccc1C` [SA5350, Lidocaine], the “hNCX1 % block @ 30 µM” value at hNCX1 was determined as 6.00%.
The molecule `C[C@@H]1OCC2(CCN(c3cnc(Sc4ccnc(N)c4Cl)c(N)n3)CC2)[C@@H]1N` [SA6687, Batoprotafib] displayed an IC50 against hERG channel of 8 µM.
For `CN=C(N)NC(=O)Nc1c(C)cccc1C` [SA9977, Lidamidine], the “hNCX1 % block @ 30 µM” value on hNCX1 stood at 17.00%. At hERG channel (human), this molecule came in with an IC50 of more than 30 µM.
